Values of other authors, collected in PubChem BioAssay AID1259409 (Chemical Carcinogenesis Research Information System (CCRIS), 2018).

System: rodent chemically induced tumor inhibition, incidence and multiplicity
Experiment: CCRIS tumor inhibitor studies
Details: Route [Inhibitor]: ORAL

C=C1CC[C@H](O)C/C1=C/C=C1\CCC[C@]2(C)[C@@H]([C@H](C)CC[C@@H](O)C(C)(C)O)CC[C@@H]12
tumour outcome (control, treated, inhibition, significance) (Carcinogen: N-N-DIETHYLNITROSAMINE [55-18-5], N-METHYL-N-NITROSOUREA [684-93-5], N,N'-DIMETHYLHYDRAZINE [540-73-8], N-BUTYL-N-(4-HYD, Carcinogen: N-N-DIETHYLNITROSAMINE [55-18-5], N-METHYL-N-NITROSOUREA [684-93-5], N,N'-DIMETHYLHYDRAZINE [540-73-8], N-BUTYL-N-(4-HYD, Dose [Inhibitor]: 1 PPM IN DIET FOR 25 WK BEGINNING 1 WK POST LAST CARCINOGEN DOSE (STUDY DURATION: 30 WK), Species: RAT, Strain/Sex: F344/MALE, Target Tissue: Type of Lesion: COLON: ADENOCARCINOMA, Dose [Carcinogen]: 100 MG/KG BW DEN IP ONCE ON DAY 0, 20 MG/KG BW MNU IP 4X ON DAYS 2, 5, 8, 11, 40 MG/KG BW DMH SC ON DAYS 14, 17, 20, 23;, Dose [Carcinogen]: 100 MG/KG BW DEN IP ONCE ON DAY 0, 20 MG/KG BW MNU IP 4X ON DAYS 2, 5, 8, 11, 40 MG/KG BW DMH SC ON DAYS 14, 17, 20, 23;, Promoter: NONE): 14/18 (77.8%), 10/14 (71.4%), 8%, not significant
tumour outcome (control, treated, inhibition, significance) (Carcinogen: N-N-DIETHYLNITROSAMINE [55-18-5], N-METHYL-N-NITROSOUREA [684-93-5], N,N'-DIMETHYLHYDRAZINE [540-73-8], N-BUTYL-N-(4-HYD, Carcinogen: N-N-DIETHYLNITROSAMINE [55-18-5], N-METHYL-N-NITROSOUREA [684-93-5], N,N'-DIMETHYLHYDRAZINE [540-73-8], N-BUTYL-N-(4-HYD, Dose [Inhibitor]: 1 PPM IN DIET FOR 25 WK BEGINNING 1 WK POST LAST CARCINOGEN DOSE (STUDY DURATION: 30 WK), Species: RAT, Strain/Sex: F344/MALE, Target Tissue: Type of Lesion: COLON: ADENOMA, Dose [Carcinogen]: 100 MG/KG BW DEN IP ONCE ON DAY 0, 20 MG/KG BW MNU IP 4X ON DAYS 2, 5, 8, 11, 40 MG/KG BW DMH SC ON DAYS 14, 17, 20, 23;, Dose [Carcinogen]: 100 MG/KG BW DEN IP ONCE ON DAY 0, 20 MG/KG BW MNU IP 4X ON DAYS 2, 5, 8, 11, 40 MG/KG BW DMH SC ON DAYS 14, 17, 20, 23;, Promoter: NONE): 6/18 (33.3%), 3/14 (21.4%), 36%, not significant
tumour outcome (control, treated, inhibition, significance) (Carcinogen: N-N-DIETHYLNITROSAMINE [55-18-5], N-METHYL-N-NITROSOUREA [684-93-5], N,N'-DIMETHYLHYDRAZINE [540-73-8], N-BUTYL-N-(4-HYD, Carcinogen: N-N-DIETHYLNITROSAMINE [55-18-5], N-METHYL-N-NITROSOUREA [684-93-5], N,N'-DIMETHYLHYDRAZINE [540-73-8], N-BUTYL-N-(4-HYD, Dose [Inhibitor]: 5 PPM IN DIET FOR 25 WK BEGINNING 1 WK POST LAST CARCINOGEN DOSE (STUDY DURATION: 30 WK), Species: RAT, Strain/Sex: F344/MALE, Target Tissue: Type of Lesion: COLON: ADENOCARCINOMA, Dose [Carcinogen]: 100 MG/KG BW DEN IP ONCE ON DAY 0, 20 MG/KG BW MNU IP 4X ON DAYS 2, 5, 8, 11, 40 MG/KG BW DMH SC ON DAYS 14, 17, 20, 23;, Dose [Carcinogen]: 100 MG/KG BW DEN IP ONCE ON DAY 0, 20 MG/KG BW MNU IP 4X ON DAYS 2, 5, 8, 11, 40 MG/KG BW DMH SC ON DAYS 14, 17, 20, 23;, Promoter: NONE): 14/18 (77.8%), 5/14 (35.7%), 54%, p<0.05
tumour outcome (control, treated, inhibition, significance) (Carcinogen: N-N-DIETHYLNITROSAMINE [55-18-5], N-METHYL-N-NITROSOUREA [684-93-5], N,N'-DIMETHYLHYDRAZINE [540-73-8], N-BUTYL-N-(4-HYD, Carcinogen: N-N-DIETHYLNITROSAMINE [55-18-5], N-METHYL-N-NITROSOUREA [684-93-5], N,N'-DIMETHYLHYDRAZINE [540-73-8], N-BUTYL-N-(4-HYD, Dose [Inhibitor]: 5 PPM IN DIET FOR 25 WK BEGINNING 1 WK POST LAST CARCINOGEN DOSE (STUDY DURATION: 30 WK), Species: RAT, Strain/Sex: F344/MALE, Target Tissue: Type of Lesion: COLON: ADENOMA, Dose [Carcinogen]: 100 MG/KG BW DEN IP ONCE ON DAY 0, 20 MG/KG BW MNU IP 4X ON DAYS 2, 5, 8, 11, 40 MG/KG BW DMH SC ON DAYS 14, 17, 20, 23;, Dose [Carcinogen]: 100 MG/KG BW DEN IP ONCE ON DAY 0, 20 MG/KG BW MNU IP 4X ON DAYS 2, 5, 8, 11, 40 MG/KG BW DMH SC ON DAYS 14, 17, 20, 23;, Promoter: NONE): 6/18 (33.3%), 0/14 (0.0%), 100%, not significant

CN(C)C(=O)COC(=O)Cc1ccc(OC(=O)c2ccc(N=C(N)N)cc2)cc1
tumour outcome (control, treated, inhibition, significance) (Carcinogen: N-NITROSOBIS(2-OXOPROPYL)AMINE, 60599-38-4, Dose [Inhibitor]: 0, 500 PPM IN DIET FOR 5 WK DURING CARCINOGEN TREATMENT (STUDY DURATION: 30 WK), Species: HAMSTER, Strain/Sex: SYRIAN/FEMALE, Target Tissue: Type of Lesion: PANCREAS: ADENOCARCINOMA, Dose [Carcinogen]: 10 MG/KG 1/WK FOR 5 WK, Promoter: NONE USED): 24/30 (80%), 18/32 (56%), 30%, p<0.05
